# Source: patent US9656988B2 (Pharmacyclics LLC, priority 2013, dated 2017)
# Read-outs that look alike come from different tables or passages of the source.
# Biological target: BTK (Homo sapiens (Human), UniProt Q06187)
# Test: Btk in vitro inhibitory activity (one of Method A TR-FRET, Method B electrophoretic mobility shift, Method C radiometric filter binding)
# Type: biochemical
# [1] = determined using one of the methods of Example 355a, 355b and 355c, read-out: BTK IC50
# Sequence of BTK (Q06187 whole entry): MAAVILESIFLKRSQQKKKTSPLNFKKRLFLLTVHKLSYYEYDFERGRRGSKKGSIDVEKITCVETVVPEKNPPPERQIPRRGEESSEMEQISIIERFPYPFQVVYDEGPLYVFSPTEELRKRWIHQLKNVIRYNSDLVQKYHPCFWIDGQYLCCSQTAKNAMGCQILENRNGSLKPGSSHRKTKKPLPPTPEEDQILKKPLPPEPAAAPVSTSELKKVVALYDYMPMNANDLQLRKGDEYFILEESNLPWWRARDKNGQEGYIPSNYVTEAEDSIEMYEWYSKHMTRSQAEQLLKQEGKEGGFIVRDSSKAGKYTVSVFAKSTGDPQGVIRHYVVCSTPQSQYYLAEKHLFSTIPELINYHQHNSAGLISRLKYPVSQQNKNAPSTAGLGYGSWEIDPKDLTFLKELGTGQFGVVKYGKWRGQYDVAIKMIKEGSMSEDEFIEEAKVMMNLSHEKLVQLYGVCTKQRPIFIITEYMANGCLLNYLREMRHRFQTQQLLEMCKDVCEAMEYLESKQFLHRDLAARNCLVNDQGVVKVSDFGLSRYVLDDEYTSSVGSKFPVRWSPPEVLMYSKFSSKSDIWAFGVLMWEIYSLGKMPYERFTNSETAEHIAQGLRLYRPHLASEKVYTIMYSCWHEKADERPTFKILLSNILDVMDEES
IC50 (Btk (IC50)),IC50 [1],Structure (SMILES),IC50 (read-out: Btk (IC50))
10 to 100 nM,10 to 100 nM,"NC(=O)c1nnc(N2CCC[C@@H](NC(=O)c3ccc4ccccc4n3)C2)nc1Nc1ccc(C(=O)N2CCOCC2)cc1 [Example 84, (R)—N-(1-(6-carbamoyl-5-(4-(morpholine-4-carbonyl)phenylamino)-1,2,4-triazin-3-yl)piperidin-3-yl)quinoline-2-carboxamide]",–
10 to 100 nM,10 to 100 nM,"NC(=O)c1nnc(N2CCC[C@@H](NC(=O)c3ccc4ncccc4c3)C2)nc1Nc1ccc(C(=O)N2CCOCC2)cc1 [Example 85, (R)—N-(1-(6-carbamoyl-5-(4-(morpholine-4-carbonyl)phenylamino)-1,2,4-triazin-3-yl)piperidin-3-yl)quinoline-6-carboxamide]",–
–,–,"NC(=O)c1nnc(N2CCC[C@@H](NC(=O)c3ccc(OCC(F)(F)F)cc3)C2)nc1Nc1ccc(C(=O)N2CCOCC2)cc1 [Example 86, (R)-5-(4-(morpholine-4-carbonyl)phenylamino)-3-(3-(4-(2,2,2-trifluoroethoxy)benzamido)piperidin-1-yl)-1,2,4-triazine-6-carboxamide]",< 10 nM
–,10 to 100 nM,"CC(C)Oc1ccc(C(=O)N[C@@H]2CCCN(c3nnc(C(N)=O)c(Nc4ccc(C(=O)N5CCOCC5)cc4)n3)C2)cc1 [Example 90, (R)-5-(4-(morpholine-4-carbonyl)phenylamino)-3-(3-(4-isopropoxybenzamido)piperidin-1-yl)-1,2,4-triazine-6-carboxamide]",10 to 100 nM
10 to 100 nM,10 to 100 nM,"Cc1cc(C(=O)N[C@@H]2CCCN(c3nnc(C(N)=O)c(Nc4ccc(C(=O)N5CCOCC5)cc4)n3)C2)no1 [Example 91, (R)—N-(1-(6-carbamoyl-5-(4-(morpholine-4-carbonyl)phenylamino)-1,2,4-triazin-3-yl)piperidin-3-yl)-5-methylisoxazole-3-carboxamide]",–
–,–,"Cc1ncc(C(=O)N[C@@H]2CCCN(c3nnc(C(N)=O)c(Nc4ccc(C(=O)N5CCOCC5)cc4)n3)C2)s1 [Example 93, (R)—N-(1-(6-carbamoyl-5-(4-(morpholine-4-carbonyl)phenylamino)-1,2,4-triazin-3-yl)piperidin-3-yl)-2-methylthiazole-5-carboxamide]",< 10 nM
–,–,"NC(=O)c1nnc(N2CCC[C@@H](NC(=O)c3nc4ccccc4s3)C2)nc1Nc1ccc(C(=O)N2CCOCC2)cc1 [Example 94, (R)—N-(1-(6-carbamoyl-5-(4-(morpholine-4-carbonyl)phenylamino)-1,2,4-triazin-3-yl)piperidin-3-yl)benzo[d]thiazole-2-carboxamide]",< 10 nM
–,10 to 100 nM,"NC(=O)c1nnc(N2CCC[C@@H](NC(=O)c3cc(C4CC4)on3)C2)nc1Nc1ccc(C(=O)N2CCOCC2)cc1 [Example 95, (R)—N-(1-(6-carbamoyl-5-(4-(morpholine-4-carbonyl)phenylamino)-1,2,4-triazin-3-yl)piperidin-3-yl)-5-cyclopropylisoxazole-3-carboxamide]",10 to 100 nM
–,10 to 100 nM,"NC(=O)c1nnc(N2CCC[C@@H](NC(=O)c3ccc(Oc4ccccc4)cc3)C2)nc1Nc1ccc(C(=O)N2CCOCC2)cc1 [Example 96, (R)-5-(4-(morpholine-4-carbonyl)phenylamino)-3-(3-(4-phenoxybenzamido)piperidin-1-yl)-1,2,4-triazine-6-carboxamide]",–
–,10 to 100 nM,"NC(=O)c1nnc(N2CCC[C@@H](NC(=O)c3nc4ccccc4o3)C2)nc1Nc1ccc(C(=O)N2CCOCC2)cc1 [Example 97, (R)—N-(1-(6-carbamoyl-5-(4-(morpholine-4-carbonyl)phenylamino)-1,2,4-triazin-3-yl)piperidin-3-yl)benzo[d]oxazole-2-carboxamide]",10 to 100 nM
–,–,"CCN(CC)C(=O)N[C@@H]1CCCN(c2nnc(C(N)=O)c(Nc3ccc(C(=O)N4CCOCC4)cc3)n2)C1 [Example 99, (R)-3-(3-(3,3-diethylureido)piperidin-1-yl)-5-(4-(morpholine-4-carbonyl)phenylamino)-1,2,4-triazine-6-carboxamide]",< 10 nM
–,< 10 nM,"NC(=O)c1nnc(N2CCC[C@@H](NC(=O)c3ccc4c(c3)nnn4C3CC3)C2)nc1Nc1ccc(C(=O)N2CCOCC2)cc1 [Example 102, (R)—N-(1-(6-carbamoyl-5-(4-(morpholine-4-carbonyl)phenylamino)-1,2,4-triazin-3-yl)piperidin-3-yl)-1-cyclopropyl-1H-benzo[d][1,2,3]triazole-5-carboxamide]",< 10 nM
–,10 to 100 nM,"CCOc1ccc(Nc2nc(N3CCC[C@@H](NC(=O)c4ccc(OC)cc4)C3)cnc2C(N)=O)cc1 [Example 111, (R)-3-(4-ethoxyphenylamino)-5-(3-(4-methoxybenzamido)piperidin-1-yl)pyrazine-2-carboxamide]",10 to 100 nM
–,10 to 100 nM,"COCCOc1ccc(Nc2nc(N3CCC[C@@H](NC(=O)c4ccc(OC)cc4)C3)cnc2C(N)=O)cc1 [Example 112, (R)-5-(3-(4-methoxybenzamido)piperidin-1-yl)-3-(4-(2-methoxyethoxy)phenylamino)pyrazine-2-carboxamide]",10 to 100 nM
–,10 to 100 nM,"CCOCCOc1ccc(Nc2nc(N3CCC[C@@H](NC(=O)c4ccc(OC)cc4)C3)cnc2C(N)=O)cc1 [Example 113, (R)-3-(4-(2-ethoxyethoxy)phenylamino)-5-(3-(4-methoxybenzamido)piperidin-1-yl)pyrazine-2-carboxamide]",–
–,10 to 100 nM,"COc1ccc(C(=O)N[C@@H]2CCCN(c3cnc(C(N)=O)c(Nc4ccc(OCC[N+](C)(C)[O-])cc4)n3)C2)cc1 [Example 116, (R)-2-(4-(3-carbamoyl-6-(3-(4-methoxybenzamido)piperidin-1-yl)pyrazin-2-ylamino)phenoxy)-N,N-dimethylethanamine oxide]",–
–,10 to 100 nM,"COc1ccc(C(=O)N[C@@H]2CCCN(c3cnc(C(N)=O)c(Nc4ccc(C(=O)N(C)C)cc4)n3)C2)cc1 [Example 118, (R)-3-(4-(dimethylcarbamoyl)phenylamino)-5-(3-(4-methoxybenzamido)piperidin-1-yl)pyrazine-2-carboxamide]",10 to 100 nM

Structure (SMILES),IC50 (Btk (IC50)),IC50 [1],IC50 (read-out: Btk (IC50))
"CCOc1ccc(C(=O)N[C@@H]2CCCN(c3nnc(C(N)=O)c(Nc4ccc(C(=O)N5CCOCC5)cc4)n3)C2)cc1 [Example 88, (R)-3-(3-(4-ethoxybenzamido)piperidin-1-yl)-5-(4-(morpholine-4-carbonyl)phenylamino)-1,2,4-triazine-6-carboxamide]",–,< 10 nM,< 10 nM
"CCCOc1ccc(C(=O)N[C@@H]2CCCN(c3nnc(C(N)=O)c(Nc4ccc(C(=O)N5CCOCC5)cc4)n3)C2)cc1 [Example 89, (R)-5-(4-(morpholine-4-carbonyl)phenylamino)-3-(3-(4-propoxybenzamido)piperidin-1-yl)-1,2,4-triazine-6-carboxamide]",–,< 10 nM,< 10 nM
"CCCn1nnc2cc(C(=O)N[C@@H]3CCCN(c4nnc(C(N)=O)c(Nc5ccc(C(=O)N6CCOCC6)cc5)n4)C3)ccc21 [Example 103, (R)—N-(1-(6-carbamoyl-5-(4-(morpholine-4-carbonyl)phenylamino)-1,2,4-triazin-3-yl)piperidin-3-yl)-1-propyl-1H-benzo[d][1,2,3]triazole-5-carboxamide]",–,< 10 nM,10 to 100 nM
"NC(=O)c1nnc(N2CCC[C@@H](N3Cc4ccccc4C3=O)C2)nc1Nc1ccc(C(=O)N2CCOCC2)cc1 [Example 104, (R)-5-(4-(morpholine-4-carbonyl)phenylamino)-3-(3-(1-oxoisoindolin-2-yl)piperidin-1-yl)-1,2,4-triazine-6-carboxamide]",–,10 to 100 nM,–
"CC#CC(=O)N1CCC[C@@H](Nc2nnc(C(N)=O)c(Nc3ccc(S(C)(=O)=O)cc3)n2)C1 [Example 105, (R)-3-(1-but-2-ynoylpiperidin-3-ylamino)-5-(4-(methylsulfonyl)phenylamino)-1,2,4-triazine-6-carboxamide]",–,< 10 nM,–
"CN(C)C/C=C/C(=O)N1CCC[C@@H](Nc2nnc(C(N)=O)c(Nc3ccc(S(C)(=O)=O)cc3)n2)C1 [Example 106, (R,E)-3-(1-(4-(dimethylamino)but-2-enoyl)piperidin-3-ylamino)-5-(4-(methylsulfonyl)phenylamino)-1,2,4-triazine-6-carboxamide]",–,< 10 nM,–
"CN(C/C=C/C(=O)N1CCC[C@@H](Nc2nnc(C(N)=O)c(Nc3ccc(S(C)(=O)=O)cc3)n2)C1)C1CC1 [Example 107, (R,E)-3-(1-(4-(cyclopropyl(methyl)amino)but-2-enoyl)piperidin-3-ylamino)-5-(4-(methylsulfonyl)phenylamino)-1,2,4-triazine-6-carboxamide]",–,< 10 nM,–
"NC(=O)c1nnc(N2CCC[C@@H](NC(=O)N3CCCCC3)C2)nc1Nc1cnc2ccccc2c1 [Example 108, (R)-3-(3-(piperidine-1-carboxamido)piperidin-1-yl)-5-(quinolin-3-ylamino)-1,2,4-triazine-6-carboxamide]",–,100 to 1000 nM,–
"NC(=O)c1nnc(N2CCC[C@@H](NC(=O)N3CCCCC3)C2)nc1Nc1ccc2cccnc2c1 [Example 109, (R)-3-(3-(piperidine-1-carboxamido)piperidin-1-yl)-5-(quinolin-7-ylamino)-1,2,4-triazine-6-carboxamide]",–,100 to 1000 nM,–
"COc1ccc(C(=O)N[C@@H]2CCCN(c3cnc(C(N)=O)c(Nc4ccc(OCCN(C)C)cc4)n3)C2)cc1 [Example 115, (R)-3-(4-(2-(dimethylamino)ethoxy)phenylamino)-5-(3-(4-methoxybenzamido)piperidin-1-yl)pyrazine-2-carboxamide]",–,< 10 nM,–
"COc1ccc(C(=O)N[C@@H]2CCCN(c3cnc(C(N)=O)c(Nc4ccc(S(C)(=O)=O)cc4)n3)C2)cc1 [Example 117, (R)-5-(3-(4-methoxybenzamido)piperidin-1-yl)-3-(4-(methylsulfonyl)phenylamino)pyrazine-2-carboxamide]",–,< 10 nM,–
"COc1ccc(C(=O)N[C@@H]2CCCN(c3cnc(C(N)=O)c(Nc4cc(C)ns4)n3)C2)cc1 [Example 119, (R)-5-(3-(4-methoxybenzamido)piperidin-1-yl)-3-(3-methylisothiazol-5-ylamino)pyrazine-2-carboxamide]",–,10 to 100 nM,–
